Measured values: US20160257697A1, “THIOPHENE-SUBSTITUTED TETRACYCLIC COMPOUNDS AND METHODS OFUSE THEREOF FOR THE TREATMENT OF VIRAL DISEASES” (priority 2013, published 2016)
Like-named read-outs stand apart in the source and are kept apart here.

Legend:
Experiment in all cases: microbe, parasite or virus in culture
Format in all cases: cell-based, Hepatitis C virus (HCV)
HCV replicon 1AY93H = settings: Replicon Assay A
How it was run: (§1)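 Compound is added to replicon cells plated at 2000 cells/well (0.5% DMSO, 5% FBS). After 3 days the cells are washed and lysed, and HCV RNA and cyclophilin mRNA are quantified by multiplex RT-PCR against a standard curve of known replicon total RNA.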

HCV replicon 2B = settings: Replicon Assay A
How it was run: as §1

HCV replicon 1A = settings: Replicon Assay A
How it was run: as §1

HCV replicon 1B = settings: Replicon Assay B
HCV replicon 1AQ30D = settings: Replicon Assay B
[1] = Hepatitis C virus, read-out: 1A Y93H IC50 (nM), replicon 1AY93H
[2] = Hepatitis C virus, read-out: 2B IC50 (nM), replicon 2B
[3] = Hepatitis C virus, read-out: 1A Q30D IC50 (nM), replicon 1AQ30D
[4] = read-out: 1A Y93H IC50, HCV replicon 1A Y93H
[5] = read-out: 2B IC50, HCV replicon 2B
[6] = Hepatitis C virus, HCV replicon 1B
[7] = Hepatitis C virus, read-out: 1A Q30D IC50, HCV replicon 1A Q30D
[8] = read-out: 1A Y93H IC50, replicon 1AY93H
[9] = read-out: 1A Q30D IC50, replicon 1AQ30D
[10] = read-out: 1A Q30D IC50, HCV replicon 1A Q30D
[11] = replicon 1AY93H, read-out: 1A Y93H IC50
[12] = replicon 1AQ30D, read-out: 1A Q30D IC50

COC(=O)N[C@H](C(=O)N1CCC[C@@H]1c1ncc(-c2ccc3c(c2)cc2n3C(c3ccc(C4CC4)s3)Oc3cc(-c4cnc([C@@H]5CCCN5C(=O)[C@H](NC(=O)OC)C(C)(C)F)[nH]4)cc(F)c3-2)[nH]1)C1C[C@@H](C)O[C@@H](C)C1 (stereo partly drawn) [Compound 380]
IC50 (HCV replicon 1AY93H; [1]): 0.0052 nM
IC50 (HCV replicon 2B; [2]): 0.0056 nM
IC50 (HCV replicon 1A; Hepatitis C virus, replicon 1A): 3 pM
IC50 (HCV replicon 1B; Hepatitis C virus, replicon 1B): 2.4 pM
IC50 (HCV replicon 1AQ30D; [3]): 0.022 nM

CCc1ccc(C2Oc3cc(-c4cnc([C@@H]5CCCN5C(=O)[C@@H](NC(=O)OC)C(C)C)[nH]4)cc(C)c3-c3cc4cc(-c5cnc([C@@H]6CCCN6C(=O)C(NC(=O)OC)C6C[C@@H](C)O[C@H](C)C6)[nH]5)ccc4n32)s1 (single isomer, unassigned) [Compound 545]
IC50 (HCV replicon 1AY93H; [4]): 0.024 nM
IC50 (HCV replicon 2B; [5]): 0.00645 nM
IC50 (HCV replicon 1A; HCV replicon 1A): 3.55 pM
IC50 (HCV replicon 1B; [6]): 5.98 pM
IC50 (HCV replicon 1AQ30D; [7]): 0.11 nM

COC(=O)N[C@H](C(=O)N1CCC[C@H]1c1ncc(-c2cc(F)c3c(c2)OC(c2ccc(CC4CC4)s2)n2c-3cc3cc(-c4cnc([C@@H]5C[C@H]6C[C@H]6N5C(=O)[C@@H](NC(=O)OC)C(C)C)[nH]4)ccc32)[nH]1)C(C)C (single isomer, unassigned) [Compound 389]
IC50 (HCV replicon 1AY93H; [8]): 0.0137 nM
IC50 (HCV replicon 2B; read-out: 2B IC50, replicon 2B): 0.0691 nM
IC50 (HCV replicon 1A; Hepatitis C virus, replicon 1A): 2.7 pM
IC50 (HCV replicon 1B; Hepatitis C virus, replicon 1B): 3.9 pM
IC50 (HCV replicon 1AQ30D; [3]): 0.23 nM

COC(=O)NC(C(=O)N1CCC[C@H]1c1ncc(-c2ccc3c(c2)cc2n3C(c3ccc(C4CC4)s3)Oc3cc(-c4cnc([C@@H]5CCCN5C(=O)[C@@H](NC(=O)OC)C(C)C)[nH]4)cc(F)c3-2)[nH]1)C1CCO[C@H](C)C1 (single isomer, unassigned) [Compound 136]
IC50 (HCV replicon 1AY93H; [8]): 0.2 nM
IC50 (HCV replicon 2B; read-out: 2B IC50, replicon 2B): 0.23 nM
IC50 (HCV replicon 1A; replicon 1A): 1.8 pM
IC50 (HCV replicon 1B; replicon 1B): 1.7 pM
IC50 (HCV replicon 1AQ30D; [9]): 0.9 nM

COC(=O)N[C@H](C(=O)N1CCC[C@H]1c1ncc(-c2cc(F)c3c(c2)OC(c2ccc(C4CC4)s2)n2c-3c(F)c3cc(-c4cnc([C@@H]5CCCC5C(=O)[C@@H](NC(=O)OC)C5CCOCC5)[nH]4)ccc32)[nH]1)C(C)C (single isomer, unassigned) [Compound 362]
IC50 (HCV replicon 1AY93H; [8]): 0.0775 nM
IC50 (HCV replicon 2B; read-out: 2B IC50, replicon 2B): 0.0486 nM
IC50 (HCV replicon 1A; Hepatitis C virus, replicon 1A): 1.1 pM
IC50 (HCV replicon 1B; Hepatitis C virus, replicon 1B): 1.8 pM
IC50 (HCV replicon 1AQ30D; [9]): 0.981 nM

CCc1ccc(C2Oc3cc(-c4cnc([C@@H]5CCCN5C(=O)[C@@H](NC(=O)OC)C(C)C)[nH]4)ccc3-c3c(F)c4cc(-c5cnc([C@@H]6CCCN6C(=O)C(NC(=O)OC)C6C[C@@H](C)O[C@@H](C)C6)[nH]5)ccc4n32)s1 (single isomer, unassigned) [Compound 634]
IC50 (HCV replicon 1AY93H; [4]): 0.0149 nM
IC50 (HCV replicon 2B; [5]): 0.027 nM
IC50 (HCV replicon 1A; HCV replicon 1A): 2.3 pM
IC50 (HCV replicon 1B; [6]): 1.5 pM
IC50 (HCV replicon 1AQ30D; [10]): 0.237 nM

COC(=O)N[C@H](C(=O)N1C2CC2C[C@H]1c1ncc(-c2cc(F)c3c(c2)OC(c2ccc(C4CC4)s2)n2c-3cc3cc(-c4cnc([C@@H]5CCCN5C(=O)[C@@H](NC(=O)OC)C5C[C@@H](C)O[C@@H](C)C5)[nH]4)ccc32)[nH]1)C(C)C (single isomer, unassigned) [Compound 557]
IC50 (HCV replicon 1AY93H; [4]): 0.00464 nM
IC50 (HCV replicon 2B; [5]): 0.0151 nM
IC50 (HCV replicon 1A; HCV replicon 1A): 3.1 pM
IC50 (HCV replicon 1B; HCV replicon 1B): 2.49 pM
IC50 (HCV replicon 1AQ30D; [10]): 0.041 nM

COC(=O)N[C@H](C(=O)N1CCC[C@H]1c1ncc(-c2cc(F)c3c(c2)OC(c2ccc(C(C)C)s2)n2c-3cc3cc(-c4cnc([C@@H]5CCCN5C(=O)[C@@H](NC(=O)OC)C(C)C)[nH]4)ccc32)[nH]1)C(C)C (single isomer, unassigned) [Compound 36]
IC50 (HCV replicon 1AY93H; [11]): 0.006 nM
IC50 (HCV replicon 2B; replicon 2B, read-out: 2B IC50): 0.053 nM
IC50 (HCV replicon 1A; replicon 1A): 1.7 pM
IC50 (HCV replicon 1B; replicon 1B): 1.1 pM
IC50 (HCV replicon 1AQ30D; [12]): 0.19 nM

COC(=O)NC(C(=O)N1CCC[C@H]1c1ncc(-c2cc(F)c3c(c2)OC(c2ccc(C4CCC4)s2)n2c-3cc3cc(-c4cnc([C@@H]5CCCN5C(=O)[C@@H](NC(=O)OC)C5CCOCC5)[nH]4)ccc32)[nH]1)C(C)(C)F (stereo partly drawn) [Compound 250]
IC50 (HCV replicon 1AY93H; [1]): 0.003 nM
IC50 (HCV replicon 2B; [2]): 0.001 nM
IC50 (HCV replicon 1A; Hepatitis C virus, replicon 1A): 2.2 pM
IC50 (HCV replicon 1B; Hepatitis C virus, replicon 1B): 2.9 pM
IC50 (HCV replicon 1AQ30D; [3]): 0.013 nM

COC(=O)N[C@H](C(=O)N1CCC[C@H]1c1nc(-c2cc(F)c3c(c2)OC(c2ccc(C4CC4)s2)n2c-3cc3cc(-c4cnc([C@@H]5CCCN5C(=O)[C@@H](NC(=O)OC)C5C[C@@H](C)O[C@@H](C)C5)[nH]4)ccc32)c[nH]1)C(C)C (stereo partly drawn) [Compound 190]
IC50 (HCV replicon 1AY93H; [1]): 0.002 nM
IC50 (HCV replicon 2B; [2]): 0.003 nM
IC50 (HCV replicon 1A; Hepatitis C virus, replicon 1A): 1.1 pM
IC50 (HCV replicon 1B; Hepatitis C virus, replicon 1B): 1.4 pM
IC50 (HCV replicon 1AQ30D; [3]): 0.013 nM

CCc1ccc(C2Oc3cc(-c4cnc([C@@H]5CCCN5C(=O)[C@@H](NC(=O)OC)C(C)C)[nH]4)cc(F)c3-c3cc4cc(-c5cnc([C@@H]6CCCN6C(=O)[C@H](NC(=O)OC)C6CCOC(C)(C)C6)[nH]5)ccc4n32)s1 (stereo partly drawn) [Compound 151]
IC50 (HCV replicon 1AY93H; [1]): 0.003 nM
IC50 (HCV replicon 2B; [2]): 0.004 nM
IC50 (HCV replicon 1A; Hepatitis C virus, replicon 1A): 2 pM
IC50 (HCV replicon 1B; Hepatitis C virus, replicon 1B): 2.4 pM
IC50 (HCV replicon 1AQ30D; [3]): 0.022 nM

CCc1ccc(C2Oc3cc(-c4cnc([C@@H]5CCCN5C(=O)C(NC(=O)OC)C5C[C@@H](C)O[C@@H](C)C5)[nH]4)cc(F)c3-c3cc4cc(-c5cnc([C@@H]6CCCN6C(=O)C(NC(=O)OC)C6C[C@@H](C)O[C@@H](C)C6)[nH]5)ccc4n32)s1 (single isomer, unassigned) [Compound 300]
IC50 (HCV replicon 1AY93H; [8]): 0.002 nM
IC50 (HCV replicon 2B; read-out: 2B IC50, replicon 2B): 0.003 nM
IC50 (HCV replicon 1A; replicon 1A): 2.4 pM
IC50 (HCV replicon 1B; Hepatitis C virus, replicon 1B): 3.2 pM
IC50 (HCV replicon 1AQ30D; [3]): 0.006 nM

CCCc1ccc(C2Oc3cc(-c4cnc([C@@H]5CCCN5C(=O)[C@@H](NC(=O)OC)C(C)C)[nH]4)cc(F)c3-c3cc4cc(-c5cnc([C@@H]6CCCN6C(=O)[C@@H](NC(=O)OC)C6CCOCC6)[nH]5)ccc4n32)s1 (single isomer, unassigned) [Compound 347]
IC50 (HCV replicon 1AY93H; [8]): 0.0023 nM
IC50 (HCV replicon 2B; read-out: 2B IC50, replicon 2B): 0.0028 nM
IC50 (HCV replicon 1A; replicon 1A): 1.9 pM
IC50 (HCV replicon 1B; replicon 1B): 2.6 pM
IC50 (HCV replicon 1AQ30D; [9]): 0.0129 nM

COC(=O)N[C@H](C(=O)N1CCC[C@H]1c1ncc(-c2cc(F)c3c(c2)OC(c2cc4ccccc4s2)n2c-3cc3cc(-c4cnc([C@@H]5C[C@H]6C[C@H]6N5C(=O)[C@@H](NC(=O)OC)C(C)C)[nH]4)ccc32)[nH]1)C(C)C (single isomer, unassigned) [Compound 616]
IC50 (HCV replicon 1AY93H; [4]): 0.0205 nM
IC50 (HCV replicon 2B; [5]): 0.266 nM
IC50 (HCV replicon 1A; HCV replicon 1A): 2.9 pM
IC50 (HCV replicon 1B; HCV replicon 1B): 2 pM
IC50 (HCV replicon 1AQ30D; [10]): 0.538 nM

COC(=O)NC(C(=O)N1CCC[C@H]1c1ncc(-c2cc(F)c3c(c2)OC(c2ccc(C4CC4)s2)n2c-3cc3cc(-c4cnc([C@@H]5CCCN5C(=O)[C@@H](NC(=O)OC)C(C)C)[nH]4)ccc32)[nH]1)C1CCOC(C)(C)C1 (single isomer, unassigned) [Compound 215]
IC50 (HCV replicon 1AY93H; [8]): 0.005 nM
IC50 (HCV replicon 2B; read-out: 2B IC50, replicon 2B): 0.01 nM
IC50 (HCV replicon 1A; replicon 1A): 3.1 pM
IC50 (HCV replicon 1B; replicon 1B): 3.2 pM
IC50 (HCV replicon 1AQ30D; [9]): 0.017 nM

COC(=O)NC(C(=O)N1CCC[C@H]1c1ncc(-c2cc(F)c3c(c2)OC(c2ccc(C4CC4)s2)n2c-3cc3cc(-c4cnc([C@@H]5CCCN5C(=O)[C@@H](NC(=O)OC)C(C)C)[nH]4)ccc32)[nH]1)C1C[C@@H](C)O[C@@H](C)C1 (single isomer, unassigned) [Compound 186]
IC50 (HCV replicon 1AY93H; [8]): 0.53 nM
IC50 (HCV replicon 2B; [2]): 0.63 nM
IC50 (HCV replicon 1A; replicon 1A): 1.9 pM
IC50 (HCV replicon 1B; Hepatitis C virus, replicon 1B): 2.1 pM
IC50 (HCV replicon 1AQ30D; [3]): 2.84 nM

COC(=O)N[C@H](C(=O)N1CCC[C@@H]1c1cnc(-c2cc(F)c3c(c2)OC(c2ccc(C4(O)CC4)s2)n2c-3cc3cc(-c4ncc([C@@H]5CCCN5C(=O)[C@@H](NC(=O)OC)C(C)C)[nH]4)ccc32)[nH]1)C(C)C (stereo partly drawn) [Compound 61]
IC50 (HCV replicon 1AY93H; [11]): 0.014 nM
IC50 (HCV replicon 2B; replicon 2B, read-out: 2B IC50): 0.012 nM
IC50 (HCV replicon 1A; replicon 1A): 1.1 pM
IC50 (HCV replicon 1B; replicon 1B): 1.1 pM
IC50 (HCV replicon 1AQ30D; [12]): 0.22 nM

CCc1ccc(C2Oc3cc(-c4cnc([C@@H]5CCCN5C(=O)[C@@H](NC(=O)OC)C(C)C)[nH]4)ccc3-c3c(F)c4cc(-c5cnc([C@@H]6CCCN6C(=O)[C@@H](NC(=O)OC)C(C)C)[nH]5)ccc4n32)s1 (single isomer, unassigned) [Compound 602]
IC50 (HCV replicon 1AY93H; [4]): 0.066 nM
IC50 (HCV replicon 2B; [5]): 0.143 nM
IC50 (HCV replicon 1A; HCV replicon 1A): 1 pM
IC50 (HCV replicon 1B; [6]): 1.7 pM
IC50 (HCV replicon 1AQ30D; [7]): 0.597 nM
